Consider ten compounds from patent US20250304582A1, “Bicyclic Ureas As Kinase Inhibitors” (Incyte Corporation, priority 2024, published 2025).

The target in assay [1] is T1, pseudo-kinase domain (JH2, amino-acids 536-812) of human V617F mutant JAK2 (Homo sapiens, UniProt O60674, F794H/V617F/W659A/W777A).
T1 construct: JH2, amino-acids 536-812 with 3 surface mutations W659A, W777A, F794H; His (C); purchased BPS Bioscience 79498; host or cells: baculovirus expression system
The experiment in a line: JAK2 LanthaScreen JH2-V617F Binding Assay. The following applies: 50 nM Fluorescent JAK2-JH2 Tracer, 1 hour at 25° C.; read-out: JH2 BIND V617F (Ex. C). Here is the method: Example C. JAK2 LanthaScreen JH2-V617F Binding Assay
(§1) JAK2 JH2-V617F binding assay utilizes pseudo-kinase domain (JH2, amino-acids 536-812 with 3 surface mutations W659A, W777A, F794H) of human V617F mutant JAK2 expressed as C-terminal His-Avi-tagged, biotinylated protein in a baculovirus expression system (BPS Bioscience, Catalog #79498). The assay was conducted in black 384-well polystyrene plates in a final reaction volume of 20 μL. JAK2 JH2-V617F (0.26 nM) was incubated with compounds (100 nL serially diluted in DMSO) in the presence of 50 nM Fluorescent JAK2-JH2 Tracer (MedChem Express Catalog #HY-102055) and 0.25 nM Streptavidin-Tb cryptate (Cisbio Part #610SATLB) in assay buffer (50 mM Tris, pH=7.5, 10 mM MgCl2, 0.01% Brij-35, 0.1% BSA, 1 mM EGTA, 5% Glycerol and 5 mM DTT). Non-specific binding was accessed in the presence of 2 mM ATP. After incubation for 1 hour at 25° C., LanthaScreen signals were read on a PHERAstar FS plate reader (BMG LABTECH). Data was analyzed with IDBS Xlfit and GraphPad Prism 5.0 software using a four parameter dose response curve to determine IC50 for each compound.
On the technique in general: Time-resolved FRET reads energy transfer from a long-lived donor to a nearby acceptor.

Assay [2] has as its target T2, pseudo-kinase domain (JH2, amino-acids 536-812) of human Wild Type JAK2 (Homo sapiens, UniProt O60674, F794H/W659A/W777A).
T2 construct: JH2, amino-acids 536-812 with 3 surface mutations W659A, W777A, F794H; His (C); purchased BPS Bioscience 79463; host or cells: baculovirus expression system
The experiment in a line: JAK2 LanthaScreen JH2-WT Binding Assay. The following applies: 50 nM Fluorescent JAK2-JH2 Tracer, 1 hour at 25° C.; read-out: JH2 BIND WT (EX. B). Here is the method: Example B. JAK2 LanthaScreen JH2-WT Binding Assay
as §1, with “JH2-WT” for “JH2-V617F”, “Wild Type” for “V617F mutant”, “#79463).” for “#79498).”, “JH2-WT (0.145” for “JH2-V617F (0.26”

Assay [3] deals with T3, catalytic domain (JH1, amino acids 808-1132) of human JAK2 (Homo sapiens, UniProt O60674).
T3 construct: catalytic domain (JH1, amino acids 808-1132) of human JAK2; His (N); purchased BPS Bioscience 40450; host or cells: baculovirus expression system
T3 sequence (O60674 808-1132): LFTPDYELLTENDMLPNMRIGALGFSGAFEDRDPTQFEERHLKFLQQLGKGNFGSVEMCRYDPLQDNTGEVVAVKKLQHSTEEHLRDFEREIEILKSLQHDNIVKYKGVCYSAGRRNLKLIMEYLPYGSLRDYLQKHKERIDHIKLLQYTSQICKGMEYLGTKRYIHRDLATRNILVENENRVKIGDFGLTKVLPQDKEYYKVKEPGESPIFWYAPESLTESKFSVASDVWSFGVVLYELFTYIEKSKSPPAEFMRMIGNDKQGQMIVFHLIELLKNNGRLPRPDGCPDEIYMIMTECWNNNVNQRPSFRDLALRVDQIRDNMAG
The experiment in a line: JAK2 HTRF Enzyme Activity Assay. The conditions noted are these: ATP (30 μM or 1 mM; not stated which for the table), 60 minutes at 25° C.; read-out: JAK2 HTRF (Ex. D). The format is biochemical. The method, then: Example D. JAK2 HTRF Enzyme Activity Assay
JAK2 enzyme activity assays utilize catalytic domain (JH1, amino acids 808-1132) of human JAK2 expressed as N-terminal His-tagged protein in a baculovirus expression system (BPS Bioscience, Catalog #40450). The assays was conducted in black 384-well polystyrene plates in a final reaction volume of 20 μL. JAK2 (0.015 nM) was incubated with compounds (100 nL serially diluted in DMSO) in the presence of ATP (30 μM or 1 mM) and 500 nM Biotin-labeled EQEDEPEGDYFEWLE (SEQ ID NO.: 1) peptide (BioSource International, custom synthesis) in assay buffer (50 mM Tris, pH=7.5, 10 mM MgCl2, 0.01% Brij-35, 0.1% BSA, 1 mM EGTA, 5% Glycerol and 5 mM DTT) for 60 minutes at 25° C. The reactions were stopped by the addition of 10 μL of detection buffer (50 mM Tris, pH 7.8, 0.5 mg/mL BSA, 150 mM NaCl), supplemented with EDTA, LANCE Eu-W1024 anti-phosphotyrosine (PY20), (PerkinElmer, Catalog #AD0067) and Streptavidin SureLight APC (PerkinElmer Catalog #CR130-100), for a final concentration of 15 mM, 1.5 nM and 75 nM, respectively. HTRF signals were read after 30 minutes incubation at room temperature on a PHERAstar FS plate reader (BMG LABTECH). Data was analyzed with TDBS Xlfit and GraphPad Prism 5.0 software using a four parameter dose response curve to determine IC50 for each compound.

In assay [4] the target is T4, catalytic domain (JH1, amino acids 826-1132) of human JAK2 (Homo sapiens, UniProt O60674).
T4 construct: catalytic domain (JH1, amino acids 826-1132) of human JAK2; FLAG (N); purchased Carna Biosciences 08-445-20N; host or cells: baculovirus expression system
T4 sequence (O60674 826-1132): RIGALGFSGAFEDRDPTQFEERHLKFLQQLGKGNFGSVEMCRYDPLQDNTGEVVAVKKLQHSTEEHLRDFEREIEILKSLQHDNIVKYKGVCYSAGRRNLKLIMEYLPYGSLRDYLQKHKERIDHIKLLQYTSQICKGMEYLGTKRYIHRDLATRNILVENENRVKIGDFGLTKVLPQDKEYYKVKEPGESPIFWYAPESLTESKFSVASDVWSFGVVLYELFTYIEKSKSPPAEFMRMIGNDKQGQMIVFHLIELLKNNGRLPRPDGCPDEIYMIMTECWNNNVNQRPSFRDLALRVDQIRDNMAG
The experiment in a line: JAK2 LanthaScreen JH1 Binding Assay. The following applies: 50 nM fluorescent JAK2-JH1 tracer, 2 hours at 25° C.; read-out: JH1 BIND (EX. A). The method, then: Example A. JAK2 LanthaScreen JH1 Binding Assay
JAK2 JH1 binding assay utilizes catalytic domain (JH1, amino acids 826-1132) of human JAK2 expressed as N-terminal FLAG-tagged, biotinylated protein in a baculovirus expression system (Carna Biosciences, Product #08-445-20N). The assay was conducted in black 384-well polystyrene plates in a final reaction volume of 20 μL. JAK2 JH1 (1.5 nM) was incubated with compounds (100 nL serially diluted in DMSO) in the presence of 50 nM fluorescent JAK2-JH1 tracer and 0.5 nM Streptavidin-Tb cryptate (Cisbio Part #610SATLB) in assay buffer (50 mM Tris, pH=7.5, 10 mM MgCl2, 0.01% Brij-35, 0.1% BSA, 1 mM EGTA, 5% Glycerol and 5 mM DTT). Non-specific binding was accessed in the presence of 2 mM ATP. After incubation for 2 hours at 25° C., LanthaScreen signals were read on a PHERAstar FS plate reader (BMG LABTECH). Data was analyzed with IDBS Xlfit and GraphPad Prism 5.0 software using a four parameter dose response curve to determine IC50 for each compound.

Each structure is given as a SMILES string.

T1 sequence (O60674 536-812 V617F/W659A/W777A/F794H): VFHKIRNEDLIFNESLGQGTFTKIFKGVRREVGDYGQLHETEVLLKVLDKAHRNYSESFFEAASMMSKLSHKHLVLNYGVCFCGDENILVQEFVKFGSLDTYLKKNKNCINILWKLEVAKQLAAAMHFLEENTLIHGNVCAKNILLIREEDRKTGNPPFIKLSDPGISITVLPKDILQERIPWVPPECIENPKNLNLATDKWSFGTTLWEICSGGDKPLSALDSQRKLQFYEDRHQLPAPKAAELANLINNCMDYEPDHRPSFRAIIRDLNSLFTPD
T2 sequence (O60674 536-812 W659A/W777A/F794H): as the sequence (O60674 536-812 V617F/W659A/W777A/F794H) above, with F82V counted along it

For the compound `[2H]C([2H])([2H])n1c(=O)n([C@@H]2CC[C@@H](NC(=O)OC)C2)c2cc(Nc3cc(C)c4cccc(C(F)(F)F)c4n3)ncc21` [Example 4, Methyl ((1R,3R)-3-(3-(methyl-d3)-6-((4-methyl-8-(trifluoromethyl)quinolin-2-yl)amino)-2-oxo-2,3-dihydro-1H-imidazo[4,5-c]pyridin-1-yl)cyclopentyl)carbamate], the IC50 is at most 10 nM in assay [1], at most 10 nM in assay [2], over 1000 nM in assay [3] and over 1000 nM in assay [4].

Regarding `[2H]C([2H])([2H])n1c(=O)n([C@@H]2CC[C@](C)(NC(=O)OC)C2)c2cc(Nc3cc(C(C)(C)O)c4cccc(C(F)(F)F)c4n3)ncc21` [Example 13, Methyl ((1S,3R)-3-(6-((4-(2-hydroxypropan-2-yl)-8-(trifluoromethyl)quinolin-2-yl)amino)-3-(methyl-d3)-2-oxo-2,3-dihydro-1H-imidazo[4,5-c]pyridin-1-yl)-1-methylcyclopentyl)carbamate], the IC50 in assay [1] is at most 10 nM; in assay [3], over 1000 nM.

For the compound `[2H]C([2H])([2H])n1c(=O)n([C@@H]2CC[C@@H](NC(=O)OCc3ccccc3)C2)c2cc(Nc3ccc4cccc(C(F)(F)F)c4n3)ncc21` [Example 8, Benzyl ((1R,3R)-3-(3-(methyl-d3)-2-oxo-6-((8-(trifluoromethyl)quinolin-2-yl)amino)-2,3-dihydro-1H-imidazo[4,5-c]pyridin-1-yl)cyclopentyl)carbamate], the IC50 was 10 to 100 nM in assay [1], 10 to 100 nM in assay [2], over 1000 nM in assay [3] and over 1000 nM in assay [4].

`[2H]C([2H])([2H])n1c(=O)n([C@@H]2CC[C@@]([2H])(NC(=O)OC)C2)c2cc(Nc3cc(C(C)(C)O)c4cccc(C(F)(F)F)c4n3)ncc21` [Example 12, Methyl ((1R,3R)-3-(6-((4-(2-hydroxypropan-2-yl)-8-(trifluoromethyl)quinolin-2-yl)amino)-3-(methyl-d3)-2-oxo-2,3-dihydro-1H-imidazo[4,5-c]pyridin-1-yl)cyclopentyl-1-d)carbamate]: the IC50 in assay [1] is at most 10 nM; in assay [3], over 1000 nM.

In the case of `[2H]C([2H])([2H])n1c(=O)n([C@@H]2CC[C@](C)(NC(=O)OCCOC)C2)c2cc(Nc3cc(C(C)(C)O)c4cccc(C(F)(F)F)c4n3)ncc21` [Example 14, 2-Methoxyethyl ((1S,3R)-3-(6-((4-(2-hydroxypropan-2-yl)-8-(trifluoromethyl)quinolin-2-yl)amino)-3-(methyl-d3)-2-oxo-2,3-dihydro-1H-imidazo[4,5-c]pyridin-1-yl)-1-methylcyclopentyl)carbamate], the IC50 was at most 10 nM in assay [1] and over 1000 nM in assay [3].

`[2H]C([2H])([2H])n1c(=O)n([C@@H]2CC[C@@H](NC(=O)OC)C2)c2cc(Nc3cc(C(C)(C)O)c4cccc(C(C)(C)C#N)c4n3)ncc21` [Example 34, Methyl ((1R,3R)-3-(6-((8-(2-cyanopropan-2-yl)-4-(2-hydroxypropan-2-yl)quinolin-2-yl)amino)-3-(methyl-d3)-2-oxo-2,3-dihydro-1H-imidazo[4,5-c]pyridin-1-yl)cyclopentyl)carbamate]: the IC50 in assay [1] is 10 to 100 nM; in assay [3], over 1000 nM.

Take `[2H]C([2H])([2H])n1c(=O)n([C@@H]2CC[C@@]([2H])(NC(=O)OC)C2)c2cc(Nc3cc(C)c4nc(C)c(I)n4n3)ncc21` [Example 46, Methyl ((1R,3R)-3-(6-((3-iodo-2,8-dimethylimidazo[1,2-b]pyridazin-6-yl)amino)-3-(methyl-d3)-2-oxo-2,3-dihydro-1H-imidazo[4,5-c]pyridin-1-yl)cyclopentyl-1-d)carbamate]: the IC50 in assay [1] was at most 10 nM; in assay [3], over 1000 nM.

For `[2H]C([2H])([2H])n1c(=O)n(C23CCC(NC(=O)OC)(C2)C3)c2cc(Nc3cc(C(C)(C)O)c4cccc(C(F)(F)F)c4n3)ncc21` [Example 32, Methyl (4-(6-((4-(2-hydroxypropan-2-yl)-8-(trifluoromethyl)quinolin-2-yl)amino)-3-(methyl-d3)-2-oxo-2,3-dihydro-1H-imidazo[4,5-c]pyridin-1-yl)bicyclo[2.1.1]hexan-1-yl)carbamate], the values for the IC50 in assay [1] and in assay [3] were at most 10 nM and over 1000 nM, respectively.

For `[2H]C([2H])([2H])n1c(=O)n([C@@H]2CC[C@]([2H])(NC(=O)OC)C2)c2cc(Nc3cc(C(C)(C)O)c4cccc(C(F)(F)F)c4n3)ncc21` [Example 11, Methyl ((1S,3R)-3-(6-((4-(2-hydroxypropan-2-yl)-8-(trifluoromethyl)quinolin-2-yl)amino)-3-(methyl-d3)-2-oxo-2,3-dihydro-1H-imidazo[4,5-c]pyridin-1-yl)cyclopentyl-1-d)carbamate], the IC50 in assay [1] was at most 10 nM; in assay [3], over 1000 nM.

With `[2H]C([2H])([2H])n1c(=O)n(C23CC(NC(=O)OC)(C2)C3)c2cc(Nc3ccc4cccc(C(F)(F)F)c4n3)ncc21` [Example 33, Methyl (3-(3-(methyl-d3)-2-oxo-6-((8-(trifluoromethyl)quinolin-2-yl)amino)-2,3-dihydro-1H-imidazo[4,5-c]pyridin-1-yl)bicyclo[1.1.1]pentan-1-yl)carbamate], the IC50 in assay [1] was 10 to 100 nM; in assay [3], over 1000 nM.
